Laboratory results: patent US9963452B2, “Methods, compounds, and compositions for inhibition of ROS” (AUGUSTA PHARMACEUTICALS INC., priority 2013, dated 2018)

Columns and labels:
Type in all cases: cell-based
[1] = system: LN18 glioblastoma cell line; experiment: In-vitro cell survival assay (Alamar blue), LN18; conditions: LN18, one day after compound addition
Method: (§1) Five tumor-derived cell lines were treated with the ROS inhibitor compounds and cell survival was monitored to determine the cancer prohibition effects of the compounds. The cell lines included HeLa, a cervical cancer cell line, and four glioblastoma cell lines U138, U87, LN18, and U118. The basic protocol for the in-vitro cell survival assay is the same for all five cell lines. In particular, the cells were seeded in 96-well plates at 2-5×10^3 cells/well (cell line dependent) in culture medium. The cells were grown for 2 days before the compounds were dissolved in DMSO and added to final concentrations of 100 uM, 10 uM, or 1 uM (DMSO final concentration 0.5%). The cell culture was then assayed one day after the addition of the compounds. The assay used Alamar blue as a redox-sensitive dye that interrogates mitochondrial fitness of cells, and these assays provided a readout for cell proliferation and viability. The raw values were normalized to an average of several vehicle control wells and are presented as percent decrease in proliferation/viability, which is converted to half maximal effective concentration (EC50) values.

[2] = system: U87 glioblastoma cell line; experiment: In-vitro cell survival assay (Alamar blue), U87; conditions: U87, one day after compound addition
Method: as §1

[3] = system: U138 glioblastoma cell line; experiment: In-vitro cell survival assay (Alamar blue), U138; conditions: U138, one day after compound addition
Method: as §1

[4] = system: U118 glioblastoma cell line; experiment: In-vitro cell survival assay (Alamar blue), U118; conditions: U118, one day after compound addition
Method: as §1

[5] = system: HeLa cervical cancer cell line; experiment: In-vitro cell survival assay (Alamar blue), HeLa; conditions: one day after compound addition
Method: as §1

Row | SMILES | EC50 ([1]; Homo sapiens, LN-18, 24 h) | EC50 ([2]; 24 h) | EC50 ([3]; 24 h) | EC50 ([4]; 24 h) | EC50 ([5]; Homo sapiens, 24 h) | EC50 [1] | EC50 [2] | EC50 [3] | EC50 [4] | EC50 [5]
1 | Cc1cccc(Nc2nccc(Nc3cccc(C(=O)NCCN4CCOCC4)c3)n2)c1 [drawing 381] | 11 µM | 36 µM | 54 µM | 17 µM | 43 µM |  |  |  |  | 
2 | O=c1[nH][nH]c2nnc(-c3ccccc3)c(-c3ccccc3)c12 [drawing 394] |  |  |  |  |  | > 100 µM | 28 µM | > 100 µM | > 100 µM | > 100 µM
3 | O=C(NCc1cccs1)c1cccc(Nc2nccc(Nc3ccc4ncsc4c3)n2)c1 [drawing 410] | 11 µM | 25 µM | 26 µM | 23 µM | 9 µM |  |  |  |  | 
4 | Nc1nc(Nc2ccc(C(=O)NCc3ccco3)cc2)cc(Nc2ccc3ncsc3c2)n1 [drawing 375] | 18 µM | 32 µM | > 100 µM | 27 µM | 44 µM |  |  |  |  | 
5 | Cc1nc2cc(C(=O)N[C@H](c3ccccc3)c3cccnc3)ccc2[nH]1 [drawing 398] | > 100 µM | > 100 µM | > 100 µM | > 100 µM | > 100 µM |  |  |  |  | 
6 | O=c1cc(Oc2ccccc2)c(-c2nc[nH]n2)nn1-c1ccccc1 [drawing 365] |  |  |  |  |  | > 100 µM | 26 µM | > 100 µM | > 100 µM | > 100 µM
7 | CC(C)CN(CC(C)C)C(=O)c1cccc(Nc2nccc(Nc3ccc4ncsc4c3)n2)c1 [drawing 424] | 22 µM | 17 µM | 54 µM | > 100 µM | 15 µM |  |  |  |  | 
8 | CCOC(Nc1cc(-c2sccc2-n2c(C)ccc2C)[nH]n1)OCC [drawing 364] |  |  |  |  |  | > 100 µM | 26 µM | > 100 µM | > 100 µM | > 100 µM
9 | Cc1cccc(Nc2nccc(Nc3cccc(C(=O)NCc4ccc(F)cc4)c3)n2)c1 [drawing 379] | 7 µM | 13 µM | 19 µM | 28 µM | 13 µM |  |  |  |  | 
10 | Cc1[nH]c2nc(NCc3cccc([N+](=O)[O-])c3)nn2c(=O)c1Cc1ccccc1 [drawing 359] | > 100 µM | 45 µM | > 100 µM | > 100 µM | > 100 µM |  |  |  |  | 
11 | CC1=NNC(=O)/C1=C\c1cn(-c2ccccc2)nc1-c1ccccc1 [drawing 403] | 12 µM | 8 µM | 8 µM | 7 µM | 20 µM |  |  |  |  | 
12 | O=C(COc1ccccc1)NCC(c1cccs1)S(=O)(=O)c1ccc(Cl)cc1 (stereo not drawn) [drawing 427] | 83 µM | 36 µM | > 100 µM | 45 µM | > 100 µM |  |  |  |  | 
13 | Cc1cccc(Nc2nccc(Nc3cccc(C(=O)N(C)CCCN(C)C)c3)n2)c1 [drawing 425] | 89 µM | 46 µM | > 100 µM | > 100 µM | 39 µM |  |  |  |  | 
14 | CCN(CCO)c1nc(Nc2ccc(F)cc2)c2cnn(-c3ccccc3)c2n1 [drawing 386] | 7 µM | 10 µM | 57 µM | 58 µM | 54 µM |  |  |  |  | 
15 | COc1ccc(C(NC(=O)c2[nH]nc(-c3ccccc3)c2C)c2ccncc2)cc1 (stereo not drawn) |  |  |  |  |  | 59 µM | > 100 µM | > 100 µM | > 100 µM | > 100 µM
16 | Cc1cccc(Nc2nccc(Nc3cccc(C(=O)NCc4ccccc4F)c3)n2)c1 [drawing 412] | 6 µM | 11 µM | 34 µM | 16 µM | 9 µM |  |  |  |  | 
17 | O=C(c1cccc(Nc2nccc(Nc3ccc4ncsc4c3)n2)c1)N1CCCCCC1 [drawing 421] | 9 µM | 25 µM | > 100 µM | 81 µM | 9 µM |  |  |  |  | 
18 | Nc1nc(Nc2ccc(C(=O)NCCc3ccncc3)cc2)cc(Nc2ccc3ncsc3c2)n1 [drawing 417] | > 100 µM | 17 µM | 33 µM | > 100 µM | 22 µM |  |  |  |  | 
19 | COc1cccc(Nc2cc(Nc3cccc(C(=O)N4CCN(C(C)=O)CC4)c3)nc(N)n2)c1 [drawing 377] | 64 µM | > 100 µM | > 100 µM | 91 µM | > 100 µM |  |  |  |  | 
20 | NC(=O)c1c(NC(=O)[C@H]2CC(=O)N(c3ccccc3)C2)sc2c1CCCC2 [drawing 356] | > 100 µM | > 100 µM | > 100 µM | > 100 µM | > 100 µM |  |  |  |  | 
21 | O=C(c1cccc(Nc2nccc(Nc3ccc4ncsc4c3)n2)c1)N1CCCCC1 [drawing 438] | 12 µM | 20 µM | > 100 µM | 52 µM | 19 µM |  |  |  |  | 
